Drawing on patent publication US20240034736A1, “HSD17B13 INHIBITORS AND USES THEREOF” (FL2022-001, Inc., priority 2020, published 2024), this text covers IC50 and inhibition for 34 molecules.

Sequence of Recombinant human HSD17B13 enzyme (Q7Z5P4 20-300): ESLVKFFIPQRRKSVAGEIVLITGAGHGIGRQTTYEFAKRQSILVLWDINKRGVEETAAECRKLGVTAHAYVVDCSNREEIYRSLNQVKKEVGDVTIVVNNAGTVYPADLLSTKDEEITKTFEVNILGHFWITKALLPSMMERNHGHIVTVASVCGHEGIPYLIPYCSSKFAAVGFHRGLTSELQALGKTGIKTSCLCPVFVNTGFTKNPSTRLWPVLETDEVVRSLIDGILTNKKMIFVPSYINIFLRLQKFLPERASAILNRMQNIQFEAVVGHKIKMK

One assay deals with Recombinant human HSD17B13 enzyme (Homo sapiens (Human), UniProt Q7Z5P4). Nature of the assay: HSD17b13 NAD(P)H-Glo Biochemical Assay. The conditions noted are these: 50 uM estradiol, 1 mM NAD+; read-out: HSD17β13 IC50. In a few lines:
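Recombinant human HSD17B13 was pre-incubated with inhibitor for 20 min at RT in 20 mM Tris pH 7.4 with 0.002% Tween-20 and 0.02% BSA. Reaction then ran with 50 uM estradiol and 1 mM NAD+ (final) for 3 h at 37° C. NADH formed was detected by NAD(P)H-Glo luminescence after 1 h at RT.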
Consider `CS(=O)(=O)N1CCN(c2ccc3c(cnn3-c3cc(O)c(F)c(F)c3)c2Cl)CC1` [Compound 21.15, 5-(4-Chloro-5-(4-(methyl-sulfonyl)piperazin-1-yl)-1H-indazol-1-yl)-2,3-difluoro-phenol], for which the concentration for half-maximal inhibition (IC50) (commonly the concentration that gives 50% inhibition) is 1 to 30 µM.

As for `CS(=O)(=O)N1CCN(c2cc(Cl)c3c(cnn3-c3cc(O)c(F)c(F)c3)c2)CC1` [Compound 21.16, 5-(7-Chloro-5-(4-(methyl-sulfonyl)piperazin-1-yl)-1H-indazol-1-yl)-2,3-difluoro-phenol], the IC50 lay within 1 to 30 µM.

Regarding `CS(=O)(=O)N1CCN(c2ccc3c(cnn3-c3cc(O)c(F)c(F)c3)n2)CC1` [Compound 21.18, 2,3-Difluoro-5-(5-(4-(methyl-sulfonyl)piperazin-1-yl)-1H-pyrazolo[4,3-b]pyridine-1-yl)-phenol], the IC50 lay in the range of 1 to 30 µM.

With `CS(=O)(=O)N1CCN(c2cc3cnn(-c4cc(O)c(F)c(F)c4)c3cc2C(F)(F)F)CC1` [Compound 21.19, 2,3-Difluoro-5-(5-(4-(methyl-sulfonyl)piperazin-1-yl)-6-(trifluoromethyl)-1H-indazol-1-yl)phenol], the IC50 was 1 to 30 µM.

With `COC1CCN(c2ccc3c(cnn3-c3cc(O)c(F)c(F)c3)c2)CC1` [Compound 21.20, 2,3-Difluoro-5-(5-(4-methoxy-piperidin-1-yl)-1H-indazol-1-yl)phenol], the IC50 was 0.1 to 1 µM.

In the case of `COC1CCN(c2cc3cnn(-c4cc(O)c(F)c(F)c4)c3cc2Cl)CC1` [Compound 21.21, 5-(6-Chloro-5-(4-methoxy-piperidin-1-yl)-1H-indazol-1-yl)-2,3-difluorophenol], the IC50 fell in the range of 0.1 to 1 µM.

In the case of `COC1CCN(c2ccc3c(cnn3-c3cc(O)c(F)c(F)c3)c2)C1` (stereo not shown) [Compound 21.22, 2,3-Difluoro-5-(5-(3-methoxy-pyrrolidin-1-yl)-1H-indazol-1-yl)phenol], the IC50 lay within 1 to 30 µM.

Regarding `CS(=O)(=O)N1CCN(c2cc3cnn(-c4cc(O)c(F)c(F)c4)c3cc2C#N)CC1` [Compound 21.23, 1-(3,4-Difluoro-5-hydroxy-phenyl)-5-(4-(methylsulfonyl)-piperazin-1-yl)-1H-indazole-6-carbonitrile], the IC50 was 0.1 to 1 µM.

In the case of `CS(=O)(=O)N1CCN(c2cc3cnn(-c4cc(O)c(F)c(F)c4)c3cc2F)CC1` [Compound 21.24, 2,3-Difluoro-5-(6-fluoro-5-(4-(methylsulfonyl)piperazin-1-yl)-1H-indazol-1-yl)phenol], the IC50 is 0.1 to 1 µM.

Turning to `COC1CN(c2ccc3c(cnn3-c3cc(O)c(F)c(F)c3)c2)C1` [Compound 21.25, 2,3-Difluoro-5-(5-(3-methoxy-azetidin-1-yl)-1H-indazol-1-yl)phenol], the IC50 lay within 1 to 30 µM.

Turning to `CS(=O)(=O)N1CCCN(c2ccc3c(cnn3-c3cc(O)c(F)c(F)c3)c2)CC1` [Compound 21.26, 2,3-Difluoro-5-(5-(4-(methyl-sulfonyl)-1,4-diazepan-1-yl)-1H-indazol-1-yl)phenol], the IC50 lay in the range of 0.1 to 1 µM.

Regarding `CS(=O)(=O)N1CC2(CN(c3ccc4c(cnn4-c4cc(O)c(F)c(F)c4)c3)C2)C1` [Compound 21.27, 2,3-Difluoro-5-(5-(6-(methyl-sulfonyl)-2,6-diazaspiro[3.3]-heptan-2-yl)-1H-indazol-1-yl)phenol], the IC50 lay in the range of 0.1 to 1 µM.

For the molecule `CC(C)S(=O)(=O)N1CCN(c2cc3cnn(-c4cc(O)c(F)c(F)c4)c3cc2Cl)CC1` [Compound 21.28, 5-(6-Chloro-5-(4-(isopropyl-sulfonyl)piperazin-1-yl)-1H-indazol-1-yl)-2,3-difluoro-phenol], the IC50 was in the range of 0.1 to 1 µM.

As to `CC1(C)CN(c2ccc3c(cnn3-c3cc(O)c(F)c(F)c3)c2)CCN1S(C)(=O)=O` [Compound 21.29, 5-(5-(3,3-Dimethyl-4-(methyl-sulfonyl)piperazin-1-yl)-1H-indazol-1-yl)-2,3-difluoro-phenol], the IC50 was in the range of 0.1 to 1 µM.

As for `CC1(C)CN(S(C)(=O)=O)CCN1c1ccc2c(cnn2-c2cc(O)c(F)c(F)c2)c1` [Compound 21.30, 5-(5-(2,2-Dimethyl-4-(methyl-sulfonyl)piperazin-1-yl)-1H-indazol-1-yl)-2,3-difluoro-phenol], the IC50 lay within 1 to 30 µM.

As for `CS(=O)(=O)C1CN(c2ccc3c(cnn3-c3cc(O)c(F)c(F)c3)c2)C1` [Compound 21.31, 2,3-Difluoro-5-(5-(3-(methyl-sulfonyl)azetidin-1-yl)-1H-indazol-1-yl)phenol], the IC50 lay in the range of 0.1 to 1 µM.

`O=S(=O)(C1CC1)N1CCN(c2cc3cnn(-c4cc(O)c(F)c(F)c4)c3cc2Cl)CC1` [Compound 21.32, 5-(6-Chloro-5-(4-(cycloprop-ylsulfonyl)piperazin-1-yl)-1H-indazol-1-yl)-2,3-difluoro-phenol]: the IC50 lay within 0.1 to 1 µM.

Turning to `CC(C)S(=O)(=O)NC1CN(c2cc3cnn(-c4cc(O)c(F)c(F)c4)c3cc2Cl)C1` [Compound 21.33, N-(1-(6-Chloro-1-(3,4-difluoro-5-hydroxyphenyl)-1H-indazol-5-yl)azetidin-3-yl)propane-2-sulfonamide], the IC50 fell in the range of 0.1 to 1 µM.

With `O=S(=O)(NC1CN(c2cc3cnn(-c4cc(O)c(F)c(F)c4)c3cc2Cl)C1)c1ccccc1` [Compound 21.34, N-(1-(6-Chloro-1-(3,4-difluoro-5-hydroxyphenyl)-1H-indazol-5-yl)azetidin-3-yl)benzene-sulfonamide], the concentration for half-maximal inhibition (IC50) is 0.1 to 1 µM.

As to `CNS(=O)(=O)C1CN(c2ccc3c(cnn3-c3cc(O)c(F)c(F)c3)c2)C1` [Compound 21.35, 1-(1-(3,4-Difluoro-5-hydroxy-phenyl)-1H-indazol-5-yl)-N-methylazetidine-3-sulfonamide], the IC50 lay in the range of 1 to 30 µM.

As to `CN(C)S(=O)(=O)C1CN(c2ccc3c(cnn3-c3cc(O)c(F)c(F)c3)c2)C1` [Compound 21.36, 1-(1-(3,4-Difluoro-5-hydroxy-phenyl)-1H-indazol-5-yl)-N,N-dimethylazetidine-3-sulfon-amide], the half-inhibitory concentration (IC50) was in the range of 0.1 to 1 µM.

As to `O=S(=O)(CC1CC1)NC1CN(c2cc3cnn(-c4cc(O)c(F)c(F)c4)c3cc2Cl)C1` [Compound 21.37, N-(1-(6-Chloro-1-(3,4-difluoro-5-hydroxyphenyl)-1H-indazol-5-yl)azetidin-3-yl)-1-cyclo-propylmethanesulfonamide], the IC50 is 0.1 to 1 µM.

Turning to `O=S(=O)(CC1CC1)N1CCN(c2cc3cnn(-c4cc(O)c(F)c(F)c4)c3cc2Cl)CC1` [Compound 21.38, 5-(6-Chloro-5-(4-((cycloprop-ylmethyl)sulfonyl)piperazin-1-yl)-1H-indazol-1-yl)-2,3-difluorophenol], the IC50 was in the range of 0.1 to 1 µM.

For `O=S(=O)(c1ccccc1)N1CCN(c2cc3cnn(-c4cc(O)c(F)c(F)c4)c3cc2Cl)CC1` [Compound 21.39, 5-(6-Chloro-5-(4-(phenyl-sulfonyl)piperazin-1-yl)-1H-indazol-1-yl)-2,3-difluoro-phenol], the IC50 lay within 0.1 to 1 µM.

Turning to `CS(=O)(=O)N1CCN(c2cc3cnn(-c4cc(O)c(F)c(F)c4)c3cn2)CC1` [Compound 21.40, 2,3-Difluoro-5-(5-(4-(methyl-sulfonyl)piperazin-1-yl)-1H-pyrazolo[3,4-c]pyridine-1-yl)-phenol], the IC50 lay in the range of 0.1 to 1 µM.

For the molecule `CS(=O)(=O)N1CCN(c2cc3cnn(-c4cc(O)c(F)c(C(F)(F)F)c4)c3cn2)CC1` [Compound 21.41, 2-Fluoro-5-(5-(4-(methyl-sulfonyl)piperazin-1-yl)-1H-pyrazolo[3,4-c]pyridine-1-yl)-3-(trifluoromethyl)phenol], the IC50 is 0.1 to 1 µM.

On to `Oc1cc(-n2ncc3cc(N4CCCCC4)ncc32)cc(C(F)(F)F)c1F` [Compound 21.42, 2-Fluoro-5-(5-(piperidin-1-yl)-1H-pyrazolo[3,4-c]pyridine-1-yl)-3-(trifluoromethyl)phenol], for which the IC50 was 0.1 to 1 µM.

Regarding `CC1(C)CCN(c2cc3cnn(-c4cc(O)c(F)c(C(F)(F)F)c4)c3cn2)CC1` [Compound 21.43, 5-(5-(4,4-Dimethylpiperidin-1-yl)-1H-pyrazolo[3,4-c]-pyridine-1-yl)-2-fluoro-3-(trifluoromethyl)phenol], the IC50 is 0.1 to 1 µM.

On to `Oc1cc(-n2ncc3cc(N4CCC5(CC4)CC5)ncc32)cc(C(F)(F)F)c1F` [Compound 21.44, 5-(5-(6-Azaspiro[2.5]octan-6-yl)-1H-pyrazolo[3,4-c]pyridine-1-yl)-2-fluoro-3-(trifluoro-methyl)phenol], for which the IC50 was below 0.1 µM.

For the molecule `CS(=O)(=O)N1CCN(c2ccc3c(cnn3-c3cc(O)c(F)c(C(F)(F)F)c3)c2)C2(CC2)C1` [Compound 21.45, 2-Fluoro-5-(5-(7-(methyl-sulfonyl)-4,7-diazaspiro[2.5]-octan-4-yl)-1H-indazol-1-yl)-3-(trifluoromethyl)phenol], the IC50 is 0.1 to 1 µM.

In the case of `CS(=O)(=O)N1CCN(c2ccc3c(cnn3-c3cc(O)c(F)c(C(F)(F)F)c3)c2)C2(CCC2)C1` [Compound 21.46, 2-Fluoro-5-(5-(8-(methyl-sulfonyl)-5,8-diazaspiro[3.5]-nonan-5-yl)-1H-indazol-1-yl)-3-(trifluoromethyl)phenol], the IC50 was in the range of 0.1 to 1 µM.

As for `CC1CN(S(C)(=O)=O)CCN1c1ccc2c(cnn2-c2cc(O)c(F)c(C(F)(F)F)c2)c1` (stereo not shown) [Compound 21.47, 2-Fluoro-5-(5-(2-methyl-4-(methylsulfonyl)piperazin-1-yl)-1H-indazol-1-yl)-3-(trifluoromethyl)phenol], the IC50 lay in the range of 0.1 to 1 µM.

As to `CC1(C)CN(S(C)(=O)=O)CCN1c1ccc2c(cnn2-c2cc(O)c(F)c(C(F)(F)F)c2)c1` [Compound 21.48, 5-(5-(2,2-Dimethyl-4-(methyl-sulfonyl)piperazin-1-yl)-1H-indazol-1-yl)-2-fluoro-3-(trifluoromethyl)phenol], the IC50 lay within 1 to 30 µM.

Staying with this assay, now noted: read-out: HSD17β13 inhibition at 30 uM.
As for `Cc1cc(N2CCN(S(C)(=O)=O)CC2)cc2cnn(-c3cc(O)c(F)c(F)c3)c12` [Compound 21.17, 2,3-Difluoro-5-(7-methyl-5-(4-(methylsulfonyl)piperazin-1-yl)-1H-indazol-1-yl)phenol], the inhibition – broadly, the relative decrease from the control value, in per cent – at 30 µM came to 47%.
